According to paper PMC12915096, “AI‐Driven Acceleration of Fluorescence Probe Discovery” (Advanced Science, 2025):

How the values were obtained:
[1] = target: T1, tau aggregates (Homo sapiens, UniProt P10636); assay: Fluorescence turn-on response / spectral assay with tau aggregates; format: binding
T1 construct: purchased QYAOBIO
Experimental: To evaluate the fluorescence turn‐on responses to targets, protein (2 µM) were incubated with probe solutions (2 µM, PBS containing 10% DMSO) for 60 min at room temperature. For probe B3, specific experiments involved co‐incubation of 5 µM B3 with 10 µM TDP‐43 aggregates for 60 min.

[2] = Selectivity evaluation (fluorescence response to non-target analytes); settings: probe 1 µM, analytes 2 µM, 60 min
Experimental: For selectivity evaluation, the probes were diluted to a final concentration of 1 µM and treated with 2 µM of various analytes. After 60 min of incubation at room temperature, fluorescence intensity was recorded at the specific excitation and emission wavelengths for each probe. The maximum emission wavelength intensity was plotted against the respective analytes.

[3] = target: tau aggregates in AD brain sections (Homo sapiens, UniProt P10636); assay: Pathological staining, colocalization with anti-tau antibody
Experimental: Human brain tissues of AD or ALS patients and human neuroblastoma tissues were immersed in xylene three times for 5 min to remove paraffin, followed by two 10 min washes with a series of diluted alcohols (100, 90%, 70%, and 50% ethanol in dd water, v/v). Following PBS washing, heat‐mediated antigen retrieval was per‐ formed in 10 mM citrate buffer (pH 9.0) using a temperature‐gradient protocol: samples were gradually heated to boiling point through sequential low‐to‐high intensity thermal exposure (total 15 min duration), followed by natural cooling to ambient temperature. […] To avoid the fluorescence overlap between antibody staining and probe labeling, specific secondary antibodies were selected. […]
The fluorescence images of tissues were acquired by a scanning microscope (KF‐FL‐020, KFBIO).
All experiments were conducted over 3–5 independent experiments, and error bars represent the S.E.M across these runs. […] Statistical analysis was performed using GraphPad Prism 8.3.0, with significance determined by one‐way ANOVA followed by Tukey's or Dunnett's post hoc tests. […] Colocalization analysis was performed using the Pearson's correlation coefficient (PCC) calculated via ImageJ software.

[4] = target: T1, tau aggregates; assay: Dissociation constant measurement by fluorescence titration; format: binding; settings: tau aggregates titrated with probe, 37°C 1 h
Experimental: The human recombinant tau protein (1 mg, QYAOBIO) was dissolved in PBS containing 110 µM heparin sodium to a final concentration of 55 µM. The solution was shake vigorously (100 rpm, Crystal IS‐RDV1) at 37°C for 72 h. Similarly, the human recombinant TDP‐43 protein (0.9 mg, Sangon Biotech) was dissolved in 1 mL Tris buffer (50 mM Tris, 300 mM NaCl, 10% Glycerol, pH 8.0) and was shake vigorously (200 rpm, Crystal IS‐RDV1) at 37°C for 48 h. Aggregates formation was monitored and verified using ThT fluorescence assay. The resulting aggregates was divided into aliquots and stored at −20°C before use.
To 1 µM protein solution in PBS containing 10% DMSO, different concentrations of probe was added (final concentration 0, 1, 2, 5, 8, 10, 20, 50, 80, 100, 200, 500, 800, and 1000 nM). The mixture was dispensed into 96‐well plates and incubated at 37°C for 1 h. The fluorescence intensity of the samples was recorded at maximum emission wavelength of probe by using a microplate reader (PerkinElmer, VICTOR Nivo^TM). Dose‐ response curves were generated by plotting fluorescence intensity against probe concentration, and equilibrium dissociation constants were calculated via nonlinear regression analysis in GraphPad Prism.

[5] = Photostability evaluation under continuous excitation; format: physicochemical; settings: 3 h illumination, PBS with 10% DMSO
Experimental: For photostability evaluation, PE859, 859‐1, or 859‐1 were diluted to 10 µM in PBS containing 10% DMSO. The solutions were loaded into a fluorescence spectrometer and the fluorescent intensity at maximum emission wavelength was recorded under continuous excitation for 180 min.

[6] = Photophysical property characterization (absorption/emission spectra, quantum yield); format: physicochemical
Experimental: For absorption and emission spectra measurements, the molecules were diluted to 10 µM in various solvents, including EtOH, DMSO, MeCN, H2O, and MeOH. Prior to analysis, the prepared samples were equilibrated at 25°C for 5 min to ensure consistent conditions. Subsequently, their absorption and emission spectra were measured. The absolute fluorescence quantum yield of these probes was measured using the FLS1000 Photoluminescence Spectrometer (Edinburgh Instruments Ltd.).

[7] = target: T2, tau aggregates in cleared P301S mice brain (Homo sapiens, UniProt P10636, P618S); assay: 3D transparent brain imaging after tissue clearing; format: in vivo; settings: transgenic mouse brains, ex vivo
T2 construct: from tissue; host or cells: brain of 9-month-old P301S (PS19) tau transgenic mice, in vivo and ex vivo
Experimental: After two‐photon imaging, mice were anesthetized by isoflurane and were transcardially perfused with ice‐cold 1×PBS followed with ice‐cold 4% PFA solution. Brain was incubated in 4% PFA at 4°C with shaking overnight. The samples were then washed with 1×PBS for at least 2 h twice at room temperature. The clearing of the fixed samples was conducted with Nuohai enhanced tissue clearing kit (NH‐CR‐230701, Nuohai Life Science (Shanghai) Co., Ltd). Briefly, samples were immersed individually in 20 mL of solution A for 7–8 days (refreshing the solution every two days) with gentle shaking at 37°C. The sample was washed in 1×PBS for 6 h with gentle shaking at room temperature and the PBS refreshed every 2 h. Finally, the samples were RI matched for 3D imaging. 3D fluorescence imaging of the cleared tissues was conducted with a Nuohai LS 18 tiling light sheet microscope (Nuohai Life Science Co., Ltd). A 4‐tile tiling light sheet was used to illuminate the samples, and a 1 × 0.25 NA objective (Olympus MVPLAPO) was used to collect the fluorescence. The magnification of the microscope was set at 4×, and the spatial resolution was roughly 3.3 × 3.3 × 7 µm^3 at the selected imaging conditions. The collected images were processed with the LS 18 image combine software (Nuohai Life Science Co., Ltd) and rendered using Amira (Thermo Fisher Scientific, USA). […]

T1 sequence (P10636 1-441 isoform P10636-8): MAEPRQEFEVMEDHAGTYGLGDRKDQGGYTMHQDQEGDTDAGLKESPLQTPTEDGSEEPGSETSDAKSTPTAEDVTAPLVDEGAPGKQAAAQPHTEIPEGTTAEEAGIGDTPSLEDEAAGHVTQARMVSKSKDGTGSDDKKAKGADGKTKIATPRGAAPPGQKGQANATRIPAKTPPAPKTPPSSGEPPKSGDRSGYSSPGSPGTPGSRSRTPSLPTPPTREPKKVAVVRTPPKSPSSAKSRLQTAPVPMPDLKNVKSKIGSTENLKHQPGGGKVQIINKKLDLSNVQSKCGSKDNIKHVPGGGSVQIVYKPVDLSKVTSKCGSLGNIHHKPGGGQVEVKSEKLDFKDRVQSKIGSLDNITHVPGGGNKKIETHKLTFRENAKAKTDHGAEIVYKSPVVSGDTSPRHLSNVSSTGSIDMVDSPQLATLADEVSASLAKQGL
Chain of tau aggregates in AD brain sections (P10636 623-695 limits assumed): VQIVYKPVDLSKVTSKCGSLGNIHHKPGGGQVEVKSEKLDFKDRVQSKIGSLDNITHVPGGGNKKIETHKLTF
T2 sequence (P10636 1-412 isoform P10636-7 P272S): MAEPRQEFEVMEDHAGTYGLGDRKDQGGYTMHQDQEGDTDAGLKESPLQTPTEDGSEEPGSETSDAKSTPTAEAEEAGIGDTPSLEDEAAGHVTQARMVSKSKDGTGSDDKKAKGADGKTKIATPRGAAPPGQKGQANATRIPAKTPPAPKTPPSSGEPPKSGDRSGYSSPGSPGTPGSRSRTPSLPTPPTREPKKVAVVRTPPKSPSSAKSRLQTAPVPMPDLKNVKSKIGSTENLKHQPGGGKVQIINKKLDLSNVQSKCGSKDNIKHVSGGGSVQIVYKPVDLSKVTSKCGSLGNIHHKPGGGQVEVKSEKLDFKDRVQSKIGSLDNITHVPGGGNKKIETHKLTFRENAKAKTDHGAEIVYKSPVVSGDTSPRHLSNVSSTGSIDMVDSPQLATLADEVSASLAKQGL

| SMILES | Fluorescence turn-on response to tau aggregates [1] | Emission redshift when incubated with tau aggregates ([1]; probe 2 µM, tau aggregates 4 µM) [nm] | Fluorescence response to non-target analytes (selectivity) [2] | Pearson Correlation Coefficient (PCC) with anti-tau antibody staining [3] | Kd [4] [nM] | Fluorescence intensity variation under continuous illumination [5] [%] | λAbs ([6]; DMSO) [nm] | λEm ([6]; DMSO) [nm] | λAbs ([6]; EtOH, Extended Data Table 5) [nm] | λEm ([6]; EtOH, Extended Data Table 5) [nm] | λAbs ([6]; H2O, Extended Data Table 5) [nm] | Emission redshift compared to PE859 ([6]; MeCN) [nm] | Quantum yield experimental ([6]; MeCN) | log10ε experimental ([6]; MeCN) | λAbs ([6]; MeCN, Extended Data Table 5) [nm] | λEm ([6]; MeCN, Extended Data Table 5) [nm] | λAbs ([6]; MeOH, Extended Data Table 5) [nm] | λEm ([6]; MeOH, Extended Data Table 5) [nm] | Tau labeling signal after 8 days of tissue clearing [7] |
| --- | --- | --- | --- | --- | --- | --- | --- | --- | --- | --- | --- | --- | --- | --- | --- | --- | --- | --- | --- |
| COc1cc(OCc2ccccn2)ccc1/C=C/C1=[O+][B-](F)(F)OC(/C=C/c2ccc3cc[nH]c3c2)=C1 [859-1] | substantially increased fluorescence intensity | 6 | minimal response to other analytes | 0.95 | 217 | 152 | 539 | 610 | 513 | 588 | 510 | 192 | 0.0063 | 4.9784 | 514 | 594 | 514 | 595 | – |
| O=C(O)c1cc(/C=C/c2ccc(/C=C/c3ccc(O)c(C(=O)O)c3)c(F)c2)ccc1O [FSB] | – | – | – | – | – | – | – | – | – | – | – | – | – | – | – | – | – | – | nearly abolished |
